# Measurements published in patent US20180118721A1, “PYRIMIDINE DERIVATIVES” (Merck Patent GmbH, priority 2015, published 2018).
# pIC50: −log10 of the molar value.
# What was measured:
# [1] = biological target: T1, purified human recombinant MTH1 (human MTH1, residues 42-197) (Homo sapiens, UniProt P36639); assay: MTH1 enzymatic assay (luminescence-based, PPiLight); format: biochemical; conditions: Table 2
# T1 construct: human MTH1, residues 42-197, Uniprot-ID: P36639, expressed in E. coli; made in house; host or cells: E. coli
# [2] = Microsomal stability (intrinsic clearance), human; format: in vitro ADME; conditions: human liver microsomes, 0.5 mg/ml protein, Clint
# Source text: (§1) A microsomal stability assay is used to measure in vitro clearance (Clint). The assay involves measuring the rate of disappearance of a compound due to its intrinsic attitude to be metabolized (“intrinsic” meaning that the disappearance is not affected by other properties like permeability, binding etc. that play a role when quantifying in vivo clearance). The microsomal stability (intrinsic clearance, Clint) and thus metabolic stability is generally given as μl/min/mg protein. It can be visualized as the volume of solution that 1 mg of microsomes is able to clear of the compound in one minute.
# (§2) A Tecan Genesis workstation (RSP 150/8) was used for to perform the microsomal incubations. Analysis was carried out using a Waters ACQUITY UPLC system coupled to an ABSciex API3000 mass spectrometer. Data analysis was performed using Assay Explorer (Symyx).
# (§3) Column: Acquity UPLC BEH C18, 2.1×50 mm, 1.7 μm (Waters) Mobile phases: A=0.1% formic acid in water; B=acetonitrile
# (§4) Flow rate: 0.750 mL/min; Detection: ESI, MRM; Injection: 10 μL; Column temperature: 50° C.
# (§5) • Potassium phosphate buffer: 0.05 M potassium phosphate buffer pH 7.4 containing 1 mM MgCl2 • NADPH (nicotinamide adenine dinucleotide phosphate): 22.5 mg NADPH-Na4 in 1.8 ml potassium phosphate buffer • Acetonitrile: 50 Vol % acetonitrile (1 volume acetonitrile, 1 volume water) • DMSO: 20 Vol % DMSO in water • Stock solution of 20 mg/ml human or mouse liver microsomes (protein)/ml in phosphate buffer • Stock solution of 10 mM compound in 100% DMSO
# (§6) Dilution of test compounds was done in 2 steps starting from a 10 mM stock solution of the respective compound in 100% DMSO. First 4 μl stock solution was added to 196 μl of 20 Vol % DMSO. In a second step, 10 μl of the first dilution were added to 1590 μl potassium phosphate buffer to achieve a final concentration of 1.25 μM in the final compound dilution. Thus, the amount of organic solvent in the assay was kept to a minimum (<1%).
# (§7) The human or mouse liver microsome (protein) solution to be used in the assay was prepared by mixing 750 μl stock solution (20 mg/ml) and 2250 μl potassium phosphate buffer to a final concentration of 5 mg/ml.
# (§8) Incubation was carried out on a 96 deep well incubation plate. 160 μl per well of the final compound dilution were transferred onto the incubation plate. Four samples of each compound dilution were assayed. 20 μl/well liver microsome solution was added to each well and the samples were then preincubated for 5 min at 37° C. and 800 rpm agitation. Two reference compounds (verapamil and dextromethorphan) were used in parallel in every experiment and for each species (human or mouse microsomes) to ensure system performance and for comparison.
# (§9) On a separate stop plate, 160 μl acetonitrile were added per well.
# (§10) After preincubation, i.e. at time t1=0 minutes, 18 μl samples of incubated compound solution and were transferred and added per well (containing acetonitrile) on the stop plate to prevent a reaction (0 minutes control samples, 4 samples per compound). Equally, 18 μl samples of incubated reference compound solution were transferred and added per well (containing acetonitrile) on the stop plate at time t1=0 minutes and again after 30 minutes (t4), solubility and chemical stability of the compound were checked. […]
# [3] = Microsomal stability (intrinsic clearance), mouse; format: in vitro ADME; conditions: mouse liver microsomes, 0.5 mg/ml protein, Clint
# Source text: as §1, §2, §3, §4, §5, §6, §7, §8, §9, §10
smiles,measurement,setting,value
"CNc1cc(-c2cccc(Cl)c2Cl)nc(N)n1 [TH-287, reference compound]",pIC50,[1],> 9.00
same,Microsomal stability human,[2],32 μl/min/mg prot.
same,Microsomal stability mouse,[3],444 μl/min/mg prot.
